Values of other authors in US20180228757A1, “EDIBLE PARTICLES COMPRISING A POLYSACCHARIDE AND A LIPID” (PERORA GMBH, priority 2015, published 2018).

Settings: infusion into the duodenum by means of a feeding tube

## CCCCCCCCCCCC(=O)O [lauric acid]
  satiety signalling: strong satiety signalling

## CCCCCCCC/C=C\CCCCCCCC(=O)O [oleic acid]
  satiety signalling: strong satiety signalling
